Results from ChEMBL document CHEMBL1201862, “PubChem BioAssay data set” (2004).
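Exposure lasted 48 hours, with cells grown in 96-well plates and compounds tested at five concentrations. Abbreviation: GI50, concentration required for 50% inhibition of growth.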 Calls of active or inactive are those of the source. Rule as the data show it: active = GI50 up to about 1.1 µM and inactive = higher.

Legend:
Test in all cases: growth of human tumour cells (NCI), 48 h
[1] = test system: 786-0
[2] = test system: COLO 205
[3] = test system: DU-145
[4] = test system: HCT-15
[5] = test system: K562
[6] = test system: M14
[7] = test system: NCI/ADR-RES
[8] = test system: OVCAR-5
[9] = test system: OVCAR-8
[10] = test system: PC-3
[11] = test system: SF-268
[12] = test system: SF-295
[13] = test system: SK-MEL-28
[14] = test system: SK-MEL-2
[15] = test system: SK-MEL-5
[16] = test system: SR
[17] = test system: SW-620
[18] = test system: UACC-257
[19] = test system: DMS-114
[20] = test system: KM-20L2

Row | SMILES | GI50 [1] | GI50 [2] | GI50 [3] | GI50 [4] [µM] | GI50 [5] | GI50 [6] | GI50 [7] | GI50 [8] | GI50 [9] | GI50 [10] | GI50 [11] | GI50 [12] | GI50 [13] | GI50 [14] | GI50 [15] | GI50 [16] | GI50 [17] | GI50 [18] | GI50 [19] | GI50 [20]
1 | C=C1C(=O)O[C@@H]2/C=C(/C)[C@@H](OC(C)=O)C/C=C(\C)C(O)[C@@H](OC(=O)/C(C)=C\C)C12 (stereo not given in full) | 15.1 µM (inactive) | 18.1 µM (inactive) | 43.7 µM (inactive) | 16.5 | 22.6 µM (inactive) | 33.1 µM (inactive) | 32.7 µM (inactive) | 58.2 µM (inactive) | 26.8 µM (inactive) | 76.2 µM (inactive) | 38.3 µM (inactive) | > 100 µM (inactive) | 18.2 µM (inactive) | 27.6 µM (inactive) | 15.8 µM (inactive) | 17.3 µM (inactive) | 16.5 µM (inactive) | 37.2 µM (inactive) |  | 
2 | O=C1NC(=O)C(c2c[nH]c3cc(Br)ccc23)=C1c1cnc[nH]1 | 50 µM (inactive) | 15.6 µM (inactive) | 60.5 µM (inactive) | 54.5 | 25.6 µM (inactive) | 51.6 µM (inactive) | > 100 µM (inactive) | > 100 µM (inactive) | 65.2 µM (inactive) | 24.7 µM (inactive) | 29.5 µM (inactive) | 16.3 µM (inactive) | 62.1 µM (inactive) | 22.9 µM (inactive) | 11 µM (inactive) | 31.3 µM (inactive) | 55.8 µM (inactive) | 16 µM (inactive) |  | 
3 | COC(=O)/C=C1\C(=O)Nc2ccc(Br)cc21 | 1.48 µM (inactive) | 1.67 µM (inactive) | 1.86 µM (inactive) | 1.16 | 1.77 µM (inactive) | 2.24 µM (inactive) | 1.91 µM (inactive) | 1.54 µM (inactive) | 2.14 µM (inactive) | 1.43 µM (inactive) | 3.49 µM (inactive) | 2.3 µM (inactive) | 2.68 µM (inactive) | 0.493 µM (active) | 1.6 µM (inactive) | 0.925 µM (active) | 1.2 µM (inactive) | 1.37 µM (inactive) |  | 
4 | CN1C[C@@H]2CCCN2P1Oc1cccc2cccnc12 (stereo not given in full) | > 100 µM (inactive) | 30.5 µM (inactive) | 83.4 µM (inactive) | 16.6 | 9.42 µM (inactive) | 33.7 µM (inactive) | 19.8 µM (inactive) | 32.6 µM (inactive) | 42.6 µM (inactive) | 27.5 µM (inactive) | 16 µM (inactive) | 85.7 µM (inactive) | 73.1 µM (inactive) | 50.7 µM (inactive) | 41.5 µM (inactive) | 25.7 µM (inactive) | 18.7 µM (inactive) | 29.4 µM (inactive) |  | 
5 | Cc1nnc(-n2c(O)cc(=O)n(-c3ccccc3)c2=S)nc1/C=C/c1ccc(N(C)C)cc1 | 12.3 µM (inactive) | 7.23 µM (inactive) | 26.1 µM (inactive) | 4.88 | 5.81 µM (inactive) | 13.7 µM (inactive) | 14.3 µM (inactive) | 27.4 µM (inactive) | 9.59 µM (inactive) | 8.41 µM (inactive) | 22.4 µM (inactive) | 12.9 µM (inactive) | 18.5 µM (inactive) | 10.9 µM (inactive) | 3.58 µM (inactive) | 5.02 µM (inactive) | 12.9 µM (inactive) | 15.5 µM (inactive) |  | 
6 | CCCCCCCCCCCCCCCCCCOCC(C[N+]1(C)CCC(O)CC1)OCC (stereo not given) | 4.18 µM (inactive) | 3.38 µM (inactive) |  |  | 4.17 µM (inactive) | 9.51 µM (inactive) |  |  | 4.2 µM (inactive) |  | 3.39 µM (inactive) | 4.68 µM (inactive) | 12.7 µM (inactive) | 4.3 µM (inactive) |  | 1.78 µM (inactive) | 5.48 µM (inactive) | 10.9 µM (inactive) | 3.19 µM (inactive) | 
7 | NS(=O)(=O)c1nn2c(Br)c(-c3ccccc3)nc2s1 | 2.45 µM (inactive) | 5.24 µM (inactive) | 3.08 µM (inactive) | 2.86 | 2.2 µM (inactive) | 3.31 µM (inactive) | 3.84 µM (inactive) | 11.1 µM (inactive) | 2.38 µM (inactive) | 6.03 µM (inactive) | 8.38 µM (inactive) | 8.97 µM (inactive) | 9.06 µM (inactive) | 4.52 µM (inactive) | 2.42 µM (inactive) | 1.88 µM (inactive) | 3.62 µM (inactive) | 5.16 µM (inactive) |  | 
8 | CC1CCN(C(C)C)P(=S)(Cc2ccccc2)O1 (stereo not given) | > 100 µM (inactive) | > 100 µM (inactive) | > 100 µM (inactive) | > 100 | 70.1 µM (inactive) | > 100 µM (inactive) | > 100 µM (inactive) | > 100 µM (inactive) | > 100 µM (inactive) | 55 µM (inactive) | > 100 µM (inactive) | 34 µM (inactive) | 13.6 µM (inactive) | 44.3 µM (inactive) | > 100 µM (inactive) | > 100 µM (inactive) | 7.93 µM (inactive) | 97.3 µM (inactive) |  | 
9 | Clc1ccccc1C(Nc1cnccn1)Nc1cnccn1 | > 100 µM (inactive) | > 100 µM (inactive) | > 100 µM (inactive) | 8.71 | 4.12 µM (inactive) | 5.85 µM (inactive) | > 100 µM (inactive) | > 100 µM (inactive) | > 100 µM (inactive) | > 100 µM (inactive) | > 100 µM (inactive) | > 100 µM (inactive) | > 100 µM (inactive) | > 100 µM (inactive) | > 100 µM (inactive) | 0.07 µM (active) | 4.36 µM (inactive) | > 100 µM (inactive) |  | 
10 | Cc1sc2nc(-c3ccc(Cl)c([N+](=O)[O-])c3)c(/C=N/NC(=N)N)n2c1C | 0.684 µM (active) | 0.282 µM (active) | 1.93 µM (inactive) | 1.37 | 2.39 µM (inactive) | 1.53 µM (inactive) | 2.04 µM (inactive) | 1.58 µM (inactive) | 0.824 µM (active) | 1.52 µM (inactive) | 1.85 µM (inactive) | 1.76 µM (inactive) | 0.973 µM (active) | 1.32 µM (inactive) | 1.53 µM (inactive) | 0.229 µM (active) | 0.247 µM (active) | 1.29 µM (inactive) |  | 
11 | CN(C)CCc1c2c(nc3ccccc13)C(=O)c1cccnc1C2=O | 0.121 µM (active) | 1.97 µM (inactive) | 0.126 µM (active) | 0.0348 | 0.154 µM (active) | 0.102 µM (active) | 0.119 µM (active) | 1.18 µM (inactive) | 0.184 µM (active) | 0.313 µM (active) | 0.238 µM (active) | 0.203 µM (active) | 0.492 µM (active) | 1.17 µM (inactive) | 0.177 µM (active) | 0.0456 µM (active) | 0.0873 µM (active) | 0.214 µM (active) |  | 
12 | C/C(=C\COP(=O)(O)OP(=O)(O)O)CCCOCc1ccccc1 | > 100 µM (inactive) | > 100 µM (inactive) | > 100 µM (inactive) | > 100 | > 100 µM (inactive) | > 100 µM (inactive) | > 100 µM (inactive) | > 100 µM (inactive) | > 100 µM (inactive) | > 100 µM (inactive) | > 100 µM (inactive) | > 100 µM (inactive) | > 100 µM (inactive) | > 100 µM (inactive) | 46.5 µM (inactive) | > 100 µM (inactive) | > 100 µM (inactive) | 38.4 µM (inactive) |  | 
13 | Cc1ccc(-c2n[nH]c(=O)n2N)cc1 | > 100 µM (inactive) | > 100 µM (inactive) | > 100 µM (inactive) | > 100 | > 100 µM (inactive) | > 100 µM (inactive) | > 100 µM (inactive) | > 100 µM (inactive) | > 100 µM (inactive) | > 100 µM (inactive) | > 100 µM (inactive) | > 100 µM (inactive) | > 100 µM (inactive) | > 100 µM (inactive) | > 100 µM (inactive) | > 100 µM (inactive) | > 100 µM (inactive) | > 100 µM (inactive) |  | 
14 | O=C(Cc1cc(=O)oc2cc(O)ccc12)N/N=C/c1ccc(N(CCCl)CCCl)cc1 | 18.8 µM (inactive) | 29.2 µM (inactive) | 19.6 µM (inactive) | > 100 | 23.5 µM (inactive) | 19.5 µM (inactive) | 84.1 µM (inactive) | 25.6 µM (inactive) | 15.1 µM (inactive) | 17.9 µM (inactive) | 13.4 µM (inactive) | 18.1 µM (inactive) | 15.1 µM (inactive) | > 100 µM (inactive) | 14.6 µM (inactive) | 14.2 µM (inactive) | 34.1 µM (inactive) | 22.1 µM (inactive) |  | 
15 | C=CCC(CNC(=O)OCc1ccccc1)OC(=O)OCc1ccccc1 (stereo not given) | 91.2 µM (inactive) | 39.1 µM (inactive) | > 100 µM (inactive) | 74.3 | 37.3 µM (inactive) | > 100 µM (inactive) | > 100 µM (inactive) | > 100 µM (inactive) | 69 µM (inactive) | 48.3 µM (inactive) | > 100 µM (inactive) | 55.5 µM (inactive) | > 100 µM (inactive) | 48.2 µM (inactive) | 22 µM (inactive) | 21.8 µM (inactive) | > 100 µM (inactive) | 73.3 µM (inactive) |  | 
16 | O=C1CCCC/C1=C/C=C/c1ccccc1 | > 100 µM (inactive) | > 100 µM (inactive) | 64.6 µM (inactive) |  | 32.4 µM (inactive) | 58.9 µM (inactive) |  | > 100 µM (inactive) | 84.1 µM (inactive) |  | 59.7 µM (inactive) | 48.6 µM (inactive) | > 100 µM (inactive) | > 100 µM (inactive) | 41.2 µM (inactive) |  | 41.6 µM (inactive) | 62.2 µM (inactive) |  | 68.1 µM (inactive)
